# Measurements: patent US10829452B2, “Histone methyltransferase inhibitors” (GLOBAL BLOOD THERAPEUTICS, INC., priority 2016, dated 2020)
# Structures can show the parent of a compound that is named as a salt.
# Molecular target: T1, G9a (Homo sapiens, UniProt Q96KQ7)
# T1 sequence (Q96KQ7 1-1210): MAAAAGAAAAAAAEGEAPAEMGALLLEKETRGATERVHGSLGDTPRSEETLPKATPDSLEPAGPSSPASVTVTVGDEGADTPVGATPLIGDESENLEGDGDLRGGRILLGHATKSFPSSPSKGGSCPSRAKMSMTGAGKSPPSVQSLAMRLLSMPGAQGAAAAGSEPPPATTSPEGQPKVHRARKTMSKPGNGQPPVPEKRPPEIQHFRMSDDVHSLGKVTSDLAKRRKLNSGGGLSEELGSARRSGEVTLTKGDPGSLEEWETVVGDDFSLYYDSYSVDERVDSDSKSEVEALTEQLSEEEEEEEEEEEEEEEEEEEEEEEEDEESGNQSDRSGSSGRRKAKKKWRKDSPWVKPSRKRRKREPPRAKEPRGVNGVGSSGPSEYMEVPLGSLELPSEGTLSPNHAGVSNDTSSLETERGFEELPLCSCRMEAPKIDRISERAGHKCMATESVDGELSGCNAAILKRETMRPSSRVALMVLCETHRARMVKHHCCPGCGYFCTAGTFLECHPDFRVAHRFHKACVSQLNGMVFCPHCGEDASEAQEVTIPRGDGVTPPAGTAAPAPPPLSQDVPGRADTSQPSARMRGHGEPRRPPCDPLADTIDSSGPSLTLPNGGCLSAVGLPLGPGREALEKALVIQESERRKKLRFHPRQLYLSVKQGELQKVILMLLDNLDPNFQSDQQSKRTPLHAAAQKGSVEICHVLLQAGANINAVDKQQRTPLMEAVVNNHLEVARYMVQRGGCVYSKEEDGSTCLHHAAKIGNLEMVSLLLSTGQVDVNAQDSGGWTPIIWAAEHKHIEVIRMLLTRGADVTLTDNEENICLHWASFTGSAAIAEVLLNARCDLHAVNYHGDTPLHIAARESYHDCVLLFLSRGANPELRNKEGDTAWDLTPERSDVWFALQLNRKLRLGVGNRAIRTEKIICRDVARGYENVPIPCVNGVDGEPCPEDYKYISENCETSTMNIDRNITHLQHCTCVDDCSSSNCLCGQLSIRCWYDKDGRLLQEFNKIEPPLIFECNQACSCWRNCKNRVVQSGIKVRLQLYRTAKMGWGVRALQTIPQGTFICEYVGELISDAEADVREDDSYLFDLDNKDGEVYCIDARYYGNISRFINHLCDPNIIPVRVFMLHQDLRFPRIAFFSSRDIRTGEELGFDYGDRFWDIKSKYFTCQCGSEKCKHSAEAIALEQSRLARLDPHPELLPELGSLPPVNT
# Assay: G9a AlphaLISA enzymatic activity assay
# Format: biochemical
# Settings: 0.15 nM G9a, 15 uM S-adenosyl-methionine, 100 nM biotinylated histone 3 peptide (1-21), 1 hour at room temperature; read-out: G9a in (uM) (IC50, concentration that produced 50% inhibition)
# Excerpt: The G9a AlphaLISA assay was used to detect the methyl modifications of a biotinylated histone H3 peptide by the compounds. These modifications are done by the histone methyl transferase activity of the G9a enzyme. The assay consists of reading a chemiluminescent signal at 615 nm; this signal is generated by a laser excitation at 680 nm that transfers a reactive singlet oxygen between the donor beads and acceptor beads. Donor beads are streptavidin conjugated and bind to the biotin on the peptide. Acceptor beads are conjugated with an antibody that recognizes the specific G9a methyl mark on the peptide. If there is a methyl mark on the peptide, the acceptor beads will bind to the peptide. Upon binding, the acceptor beads will be in close proximity (<200 nm) of the donor beads and when the donor beads are excited, the transfer of the oxygen can occur and a strong signal will be generated. If there is no methyl mark, the interaction between beads will not occur and signal will be at background levels.
# For the assay, the following buffer was used to set up reactions: 50 mM Tris-HCl pH9, 50 mM NaCl, 0.01% Tween-20 and 1 mM DTT (added fresh prior to starting the reactions). The assay is set up by adding a final concentration of 0.15 nM G9a, 15 uM S-adenosyl-methionine and, 100 nM biotinylated histone 3 peptide (1-21). The reaction is incubated at room temperature for 1 hour, and subsequently quenched by the addition of the acceptor beads (anti-H3k9me2 AlphaLISA acceptor beads, PerkinElmer # AL117) at a final concentration of 20 ug/mL. The acceptor beads are incubated for 1 hour. After 1 hour, the donor beads are added at a final concentration of 20 ug/mL (Alpha Streptavidin donor beads, PerkinElmer #6760002). Donor beads are incubated for 0.5 hours. Both donor and acceptor beads are resuspended in AlphaLISA 5X Epigenetics Buffer 1 Kit (PerkinElmer # AL008) prior to addition to the reaction. All manipulations and incubations with the donor and acceptor beads are done in subdued light. Signal is detected in an EnVision plate reader in Alpha mode (see ACS Med Chem Lett. 2014 Jan. 2; 5(2):205-9. doi: 10.1021/m1400496h. eCollection 2014. Discovery and development of potent and selective inhibitors of histone methyltransferase g9a.)
# Percent inhibition was calculated for each compound dilution and the concentration that produced 50% inhibition was calculated. This value is presented as the IC50.
row,Structure (SMILES),IC50 [µM]
1,"COc1cc2c3c(c(N(C)c4ccccc4)nc2cc1OCCCN1CCCC1)CCC3 [Example 69, 8-methoxy-N-methyl-N-phenyl-7-[3-(pyrrolidin-1-yl)propoxy]-1H,2H,3H-cyclopenta[c]quinolin-4-amine trifluoroacetate]",> 10
2,"COc1cc2c(cc1OCCCN1CCCC1)nc(NC(C)C)c1cccnc12 [Example 52, 9-methoxy-N-(propan-2-yl)-8-[3-(pyrrolidin-1-yl)propoxy]benzo[h]1,6-naphthyridin-5-amine formate]",0.34
3,"CNc1nc2cc(OCCCN3CCCC3)c(OC)cc2c2c1CCC2 [Example 1, 8-methoxy-N-methyl-7-[3-(pyrrolidin-1-yl)propoxy]-1H,2H,3H-cyclopenta[c]quinolin-4-amine formate]",0.031
4,"CNc1nc2cc(OCCCN3CCCC3)c(OC)cc2c2c1COCC2 [Example 57, 9-methoxy-N-methyl-8-[3-(pyrrolidin-1-yl)propoxy]-1H,2H,4H-pyrano[3,4-c]quinolin-5-amine formate]",0.21
5,"CCNc1nc2cc(OCCCN3CCCC3)c(OC)cc2c2c1COC2 [Example 60, N-ethyl-8-methoxy-7-[3-(pyrrolidin-1-yl)propoxy]-1H,3H-furo[3,4-c]quinolin-4-amine formate]",0.21
6,"CNc1nc2cc(OCCCN3CCCC3)c(OC)cc2c2c1CCCC2 [Example 2, 2-methoxy-N-methyl-3-[3-(pyrrolidin-1-yl)propoxy]-7,8,9,10-tetrahydrophenanthridin-6-amine formate]",0.029
7,"COc1cc2c3c(c(NC4COC4)nc2cc1OCCCN1CCCC1)CCC3 [Example 44, 8-methoxy-N-(oxetan-3-yl)-'7-[3-(pyrrolidin-1-yl)propoxy]-1H,2H,3H-cyclopenta[c]quinolin-4-amine formate]",5.8
8,"COc1cc2c(cc1OCCCN1CCCC1)nc(O)n1nccc21 [Example 56, 9-methoxy-8-[3-(pyrrolidin-1-yl)propoxy]pyrazolo[1,5-c]quinazolin-5-ol formate]",0.46
9,"COc1cc2c3c(c(C(C)C)nc2cc1OCCCN1CCCC1)CCCCN3 [Example 81, 1-(3-{[10-methoxy-6-(propan-2-yl)-1H,2H,3H,4H,5H-azepino[3,2-c]quinolin-9-yl]oxy}propyl)pyrrolidine trifluoroacetate]",0.009
10,"COc1cc2c3c(c(NC4CCOCC4)nc2cc1OCCCN1CCCC1)CCCC3 [Example 12, 2-methoxy-N-(oxan-4-yl)-3-[3-(pyrrolidin-1-yl)propoxy]-7,8,9,10-tetrahydrophenanthridin-6-amine trifluoroacetate]",0.52
11,"COc1cc2nc(NC3CC3)c3c(c2cc1OCCCN1CCCC1)COC3 [Example 47, N-cyclopropyl-7-methoxy-8-[3-(pyrrolidin-1-yl)propoxy]-1H,3H-furo[3,4-c]quinolin-4-amine]",3.1
12,"COc1cc2c3c(c(N[C@H]4C[C@H](O)C4)nc2cc1OCCCN1CCCC1)CCCC3 [Example 64, 3-({2-methoxy-3-[3-(pyrrolidin-1-yl)propoxy]-7,8,9,10-tetrahydrophenanthridin-6-yl}amino)cyclobutan-1-ol formate]",0.5
13,"COc1cc2c3c(c(NC4CCC4)nc2cc1OCCCN1CCCC1)CCC3 [Example 7, N-cyclobutyl-8-methoxy-7-[3-(pyrrolidin-1-yl)propoxy]-1H,2H,3H-cyclopenta[c]quinolin-4-amine formate]",0.045
14,"COc1cc2c3c(c(N4CCCC4)nc2cc1OCCCN1CCCC1)CCC3 [Example 10, 1-{8-methoxy-7-[3-(pyrrolidin-1-yl)propoxy]-1H,2H,3H-cyclopenta[c]quinolin-4-yl}pyrrolidine formate]",0.19
15,"COc1cc2c3c(c(NC4CCCC4)nc2cc1OCCCN1CCCC1)CCC3 [Example 8, N-cyclopentyl-8-methoxy-7-[3-(pyrrolidin-1-yl)propoxy]-1H,2H,3H-cyclopenta[c]quinolin-4-amine trifluoroacetate]",0.04

# Other lines, results leading:
row,IC50 [µM],Structure (SMILES)
1,1,"COc1cc2c3c(c(N[C@H]4CCC[C@H]4O)nc2cc1OCCCN1CCCC1)CCC3 (racemic) [Example 125, (1R,2S)-2-({8-methoxy-7-[3-(pyrrolidin-1-yl)propoxy]-1H,2H,3H-cyclopenta[c]quinolin-4-yl}amino)cyclopentan-1-ol and (1S,2R)-2-({8-methoxy-7-[3-(pyrrolidin-1-yl)propoxy]-1H,2H,3H-cyclopenta[c]quinolin-4-yl}amino)cyclopentan-1-ol (1:1) mixture as formate salt]"
2,0.006,"COc1cc2c3c(c(C)nc2cc1OCCCN1CCCC1)CCCCN3 [Example 82, 1-[3-({10-methoxy-6-methyl-1H,2H,3H,4H,5H-azepino[3,2-c]quinolin-9-yl}oxy)propyl]pyrrolidine trifluoroacetate]"
3,0.059,"COc1cc2c3c(c(NC(C)C)nc2cc1OCCCN(C)C)CCC3 [Example 92, 7-[3-(dimethylamino)propoxy]-8-methoxy-N-(propan-2-yl)-1H,2H,3H-cyclopenta[c]quinolin-4-amine formate]"
4,0.39,"CCN(CC)CCCOc1cc2nc(NC(C)C)c3c(c2cc1OC)CCC3 [Example 93, 7-[3-(diethylamino)propoxy]-8-methoxy-N-(propan-2-yl)-1H,2H,3H-cyclopenta[c]quinolin-4-amine formate]"
5,0.009,"COc1ccc(CNc2nc3cc(OCCCN4CCCC4)c(OC)cc3c3c2CCC3)c(OC)c1 [Example 115, N-[(2,4-dimethoxyphenyl)methyl]-8-methoxy-7-[3-(pyrrolidin-1-yl)propoxy]-1H,2H,3H-cyclopenta[c]quinolin-4-amine formate]"
6,0.006,"COc1cc2c3c(c(N)nc2cc1OCCCN1CCCC1)CCC3 [Example 116, 8-methoxy-7-[3-(pyrrolidin-1-yl)propoxy]-1H,2H,3H-cyclopenta[c]quinolin-4-amine formate]"
7,0.016,"COc1cc2c3c(c(NC4CCCCC4)nc2cc1OCCCN1CCCC1)CCC3 [Example 107, N-cyclohexyl-8-methoxy-7-[3-(pyrrolidin-1-yl)propoxy]-1H,2H,3H-cyclopenta[c]quinolin-4-amine trifluoroacetate]"
8,0.6,"COc1cc2c3c(c(-c4coc(C)c4)nc2cc1OCCCN1CCCC1)CCC3 [Example 90, 1-(3-{[8-methoxy-4-(5-methylfuran-3-yl)-1H,2H,3H-cyclopenta[c]quinolin-7-yl]oxy}propyl)pyrrolidine formate]"
9,0.17,"COc1cc2c3c(c(N[C@H]4CC[C@H](O)CC4)nc2cc1OCCCN1CCCC1)CCC3 [Example 123, (1R,4R)-4-({8-methoxy-7-[3-(pyrrolidin-1-yl)propoxy]-1H,2H,3H-cyclopenta[c]quinolin-4-yl}amino)cyclohexan-1-ol formate]"
